Columns and labels:
[1] = molecular target: T1, human galectin-3 (Gal-3) (Homo sapiens, UniProt P17931); test: competitive enzyme-linked lectin assay, inhibition of Gal-3 binding to immobilized asialofetuin
T1 construct: gene LGALS3; N-terminal His6-tag (kept, used for detection), expressed in E. coli Rosetta (DE3) pLysS, IMAC purified

[2] = substrate: OC[C@H]1O[C@H](F)[C@H](O)[C@@H](O)[C@H]1O; test: discontinuous HPLC assay, glycosynthase reaction; type: biochemical, Niallia circulans; settings: donor substrate, acceptor GalNAc(α1-EG3-azide fixed at 5 mM), 50 mM HEPES pH 7.2, 30 °C, text gives 0.22 mM for the donor, Fig. 2 legend prints 0.22 M and assigns it to panel b (acceptor)

T1 sequence (P17931 whole entry): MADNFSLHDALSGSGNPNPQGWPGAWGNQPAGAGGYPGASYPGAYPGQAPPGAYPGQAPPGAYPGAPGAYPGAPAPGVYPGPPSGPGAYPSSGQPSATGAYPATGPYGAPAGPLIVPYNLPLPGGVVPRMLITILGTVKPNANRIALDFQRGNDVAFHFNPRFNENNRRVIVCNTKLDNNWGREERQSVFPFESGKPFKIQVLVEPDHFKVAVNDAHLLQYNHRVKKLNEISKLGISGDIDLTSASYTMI

IC50 [1] [µM]	Molecule	Km [2] [µM]
1560 ± 92.6	CC(=O)N[C@H]1[C@@H](OCCOCCOCCN=[N+]=[N-])O[C@H](CO)[C@H](O)[C@@H]1O[C@@H]1O[C@H](CO)[C@H](O)[C@H](O)[C@H]1O [compound 6, TF-antigen-azide]	–
–	BgaC (β-galactosidase) (Niallia circulans; E233G) (protein, recombinant, plasmid pETDuet-1, E. coli BL21 (DE3), IMAC purified) MSQLTYDDSFLLDGKEIRLLSGAMHYFRTVPEYWEDRLLKLKACGFNTVETYVAWNLHEPEEGQFVFEGIADIVRFIKTAEKVGLHVIVRPGPFICAEWEFGGFPYWLLTVPNIKLRCFNQPYLEKVDAYFDVLFERLRPLLSSNGGPIIALQIENEYGSFGNDQKYLQYLRDGIKKRVGNELLFTSDGPEPSMLSGGMIEGIFETVNFGSRAESAFAQLKQYQPNAPLMCMGFWHGWFDHWGEEHHTRSAESVVETLEEILKQNGSVNFYMAHGGTNFGFYNGANHNETDYQPTITSYDYDGLLTESGDVTEKFYAVRKVFEKYVDLPELNLPAPIPKRLFGKVKFTEHAGLLDSLHRISTPQKSEAPLPMEKYGQAYGFIVYETTIKGAYGKQALTVQDIHDRGQVYVNGEYVGIVERNRGCSRLVVELTEEESKLQIIVENMGRINYGPFVVDYKGITEGVRLGNQFLFDWTVYPLPLKDLSSLEFTADEVKENFPYFHKGILTVDKAADTFIDLSEWTKGVVFVNGHHLGRYWEIGPQQTLYVPAPFLQEGENEIILLELHKHHQSVTFVDTPVLGAIPKTP	220
